Results reported in patent US11414425B2 (priority 2018, dated 2022).
Where two headings read alike, the source gives them in different places.

Assays:
[1] = biological target: α5β3γ2 GABAA receptors (Homo sapiens, UniProt P18507+P31644); assay: [3H]Ro15-1788 binding, membranes of Ltk cells stably expressing α5β3γ2 GABAA receptors
[2] = biological target: T1, GABAA receptors (α5β2γ2) (Homo sapiens, UniProt P18507+P31644); assay: Positive allosteric modulator activity: potentiation of EC20 GABA current in oocytes; format: cell-based; conditions: read-out: GABA α5 Functional Data (potentiation of EC20 GABA)
T1 construct: expressed in transfected cells
T1 sequence (P31644 32-462): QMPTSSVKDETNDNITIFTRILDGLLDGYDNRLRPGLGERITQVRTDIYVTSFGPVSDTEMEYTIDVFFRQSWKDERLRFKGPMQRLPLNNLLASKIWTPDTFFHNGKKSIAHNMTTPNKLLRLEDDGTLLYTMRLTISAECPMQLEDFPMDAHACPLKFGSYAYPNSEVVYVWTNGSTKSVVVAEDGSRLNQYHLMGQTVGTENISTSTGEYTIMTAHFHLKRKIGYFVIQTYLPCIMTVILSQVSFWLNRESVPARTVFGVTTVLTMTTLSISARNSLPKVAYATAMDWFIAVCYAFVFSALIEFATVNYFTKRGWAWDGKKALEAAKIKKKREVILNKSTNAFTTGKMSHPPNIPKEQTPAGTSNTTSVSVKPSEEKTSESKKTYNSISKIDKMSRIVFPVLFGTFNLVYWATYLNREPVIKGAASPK
T1 sequence (P47870 25-512, further chain): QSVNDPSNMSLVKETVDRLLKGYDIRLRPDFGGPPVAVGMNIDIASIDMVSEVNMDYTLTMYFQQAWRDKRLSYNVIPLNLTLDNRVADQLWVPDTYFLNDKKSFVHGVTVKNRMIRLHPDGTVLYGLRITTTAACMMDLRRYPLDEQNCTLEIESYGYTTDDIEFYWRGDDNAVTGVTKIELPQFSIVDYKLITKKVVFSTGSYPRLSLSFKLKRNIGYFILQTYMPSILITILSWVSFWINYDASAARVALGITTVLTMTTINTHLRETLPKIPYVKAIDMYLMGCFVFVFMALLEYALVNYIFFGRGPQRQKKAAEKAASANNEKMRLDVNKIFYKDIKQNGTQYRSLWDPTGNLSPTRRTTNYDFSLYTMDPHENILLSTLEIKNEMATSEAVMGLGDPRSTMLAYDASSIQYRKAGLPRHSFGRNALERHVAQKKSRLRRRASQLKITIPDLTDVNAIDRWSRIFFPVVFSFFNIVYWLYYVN
T1 sequence (P18507 40-475): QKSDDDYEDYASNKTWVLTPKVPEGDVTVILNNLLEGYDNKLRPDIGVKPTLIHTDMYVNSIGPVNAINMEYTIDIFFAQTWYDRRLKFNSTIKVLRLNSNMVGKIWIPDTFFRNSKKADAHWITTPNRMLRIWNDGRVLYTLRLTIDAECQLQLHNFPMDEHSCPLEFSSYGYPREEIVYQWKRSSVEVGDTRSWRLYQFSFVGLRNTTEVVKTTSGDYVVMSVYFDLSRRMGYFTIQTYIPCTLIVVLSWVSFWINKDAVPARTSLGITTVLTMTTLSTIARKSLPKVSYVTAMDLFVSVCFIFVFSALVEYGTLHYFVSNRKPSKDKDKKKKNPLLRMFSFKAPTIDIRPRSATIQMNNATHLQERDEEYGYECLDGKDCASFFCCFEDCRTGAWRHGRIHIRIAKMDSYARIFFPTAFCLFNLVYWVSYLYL
Method: On day 1, 1 ng/32 nL of GABAA α5β2γ2 cDNA was injected into one oocyte. Test starts on day 2. The cDNA injected to the oocytes was a mix of alpha, beta and gamma, their ratio is 1:1:10 (by weight) and the total weight of the mixed 3 subunits to be injected in one oocyte was 1 ng in 32 nl volume. The injected oocytes can also be tested on day 3. In such case, the cDNA amount injected to the oocytes should be reduced by 20%.
1). 8 oocytes were placed in 8 chambers of OpusXpress and superfused with Modified Barth's Saline (MBS) at 3 mL/min. Glass electrodes back-filled with 3M KCl (0.5-3 megaohms) were used.
1). New oocytes were used to run new test.
3). […] Oocytes were washed with MBS for 5-10 min.
4). […] Itest was divided by IGABA to obtain potentiation (%).
Test Compounds at Multiple Doses • 1). Repeat the above steps 1), 2) and 3) in the control test. • 2). […] Divide Itest by IGABA to obtain potentiation (%). • 3). Discard all tested oocytes, new oocytes were used and the above steps 1) and 2) were repeated to test second concentration of the same compound. Each oocyte was used for only one concentration test for a single test compound. The steps were repeated for other test compounds.

[3] = ranges, inhibition of [3H]Ro15-1788 binding

Chain of α5β3γ2 GABAA receptors (P31644 32-462): as the sequence (P31644 32-462) above
Chain of α5β3γ2 GABAA receptors (P28472 26-473 partner): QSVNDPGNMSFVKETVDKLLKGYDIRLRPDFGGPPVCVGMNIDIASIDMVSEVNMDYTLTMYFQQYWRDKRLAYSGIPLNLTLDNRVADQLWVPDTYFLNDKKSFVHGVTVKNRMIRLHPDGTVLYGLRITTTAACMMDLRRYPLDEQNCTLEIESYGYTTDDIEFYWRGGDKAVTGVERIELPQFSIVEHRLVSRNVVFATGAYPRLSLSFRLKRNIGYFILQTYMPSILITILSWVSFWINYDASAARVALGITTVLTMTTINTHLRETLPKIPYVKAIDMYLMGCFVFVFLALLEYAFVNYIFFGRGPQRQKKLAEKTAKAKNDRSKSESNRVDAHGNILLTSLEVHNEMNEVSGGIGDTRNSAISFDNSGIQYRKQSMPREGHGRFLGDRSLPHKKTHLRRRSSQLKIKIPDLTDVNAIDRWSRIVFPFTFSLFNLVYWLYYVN
Chain of α5β3γ2 GABAA receptors (P18507 40-475): as the sequence (P18507 40-475) above

Row | SMILES | Ki [1, 3] [nM] | activation at 0.1 µM ([2]; @ 100 nM, ranges) [%] | Ki [1] [nM] | activation at 0.1 µM [2] [%]
1 | COCc1nnc2n1Cc1c(C#Cc3ccc(OC)nn3)ncn1-c1ccc(OC)cc1-2 [Compound 712] | < 100 | > 50 |  | 
2 | COCc1nnn2c1Cc1c(C3=NC[C@H](c4ccc(Cl)cc4)O3)ncn1-c1ccc(OC)cc1-2 [Compound 636] | < 100 | 5 to 20 |  | 
3 | Cc1nnc(-c2ncn3c2Cc2cnnn2-c2cc(Cl)ccc2-3)s1 [Compound 509] |  |  | < 100 | 20 to 50
4 | COCc1nnc2n1Cc1c(C#Cc3cnc(C)s3)ncn1-c1ccc(OC)cc1-2 [Compound 597] | < 100 | > 50 |  | 
5 | COc1ccc2c(c1)-n1nncc1Cc1c(C3=NCC(c4ccncc4)O3)ncn1-2 (stereo not shown) [Compound 630] | < 100 | 20 to 50 |  | 
6 | COCc1nnc2n1Cc1c(C#Cc3cnc(OC)s3)ncn1-c1ccc(Cl)cc1-2 [Compound 606, 5-((3-chloro-7-(methoxymethyl)-9H-benzo[f]imidazo[1,5-a][1,2,4]triazolo[4,3-d][1,4]diazepin-10-yl)ethynyl)-2-methoxythiazole] | < 100 | 20 to 50 |  | 
7 | COc1ccc2c(c1)-n1nncc1Cc1c(C3=NCC(c4ccccn4)O3)ncn1-2 (stereo not shown) [Compound 628] | < 100 | 20 to 50 |  | 
8 | COCc1nnc2n1Cc1c(C#Cc3cncc(C)c3)ncn1-c1ccc(Cl)cc1-2 [Compound 558] | < 100 | 5 to 20 |  | 
9 | COCc1nnc2n1Cc1c(C#Cc3ccc(C)nc3)ncn1-c1ccc(OC)cc1-2 [Compound 561] | < 100 | 20 to 50 |  | 
10 | COCc1nnc2n1Cc1c(C#Cc3cnc(C)cn3)ncn1-c1ccc(Cl)cc1-2 [Compound 582] | < 100 | > 50 |  | 
11 | COc1ccc2c(c1)-n1nncc1Cc1c(C3=N[C@H](c4ccc(Cl)cc4)CO3)ncn1-2 [Compound 517] | < 100 | 20 to 50 |  | 
12 | Clc1ccc2c(c1)-n1nncc1Cc1c(C3=NC[C@@H](c4ccccc4)O3)ncn1-2 [Compound 514] | < 100 | 5 to 20 |  | 
13 | COCc1nnc2n1Cc1c(C#Cc3cnc(C)n3C)ncn1-c1ccc(Cl)cc1-2 [Compound 671] | < 100 | > 50 |  | 
14 | COCc1nnc2n1Cc1c(C#Cc3ncc(OC)cn3)ncn1-c1ccc(Cl)cc1-2 [Compound 574] | < 100 | > 50 |  | 
15 | COCc1nnc2n1Cc1c(C#Cc3cncc(OC)c3)ncn1-c1ccc(OC)cc1-2 [Compound 566] | < 100 | 5 to 20 |  | 
16 | FC(F)Oc1ccc2c(c1)-n1nncc1Cc1c(C#CC3(c4ccccc4)CC3)ncn1-2 [Compound 504] | < 100 | 5 to 20 |  | 
17 | COCc1nnc2n1Cc1c(C#Cc3ccc(C)cn3)ncn1-c1ccc(OC)cc1-2 [Compound 562] | < 100 | 20 to 50 |  | 
18 | COCc1nnc2n1Cc1c(C#Cc3ncc(C)s3)ncn1-c1ccc(Cl)cc1-2 [Compound 607] | < 100 | 20 to 50 |  | 
19 | CCOC(=O)c1ncn2c1Cc1c(Cc3cccnc3)nnn1-c1cc(C)ccc1-2 [Compound 111] | < 100 | 20 to 50 |  | 
20 | Clc1ccc2c(c1)-n1nncc1Cc1c(-c3noc(-c4ccccc4)n3)ncn1-2 [Compound 537] | < 100 | 20 to 50 |  | 
21 | Clc1ccc2c(c1)-n1nncc1Cc1c(-c3cn(Cc4ccccc4)nn3)ncn1-2 [Compound 523] | < 100 | 5 to 20 |  | 
22 | COc1ccc2c(c1)-n1nncc1Cc1c(C3=N[C@H](c4ccccc4)CO3)ncn1-2 [Compound 290] | < 100 | 20 to 50 |  | 
23 | COCc1nnc2n1Cc1c(C#Cc3cnc4occc4c3)ncn1-c1ccc(OC)cc1-2 [Compound 674] | < 100 | 5 to 20 |  | 
